Laboratory results published in US8853246B2 (Dow AgroSciences LLC, priority 2009, dated 2014).
Read-outs that look alike come from different tables or passages of the source.

How the values were obtained:
[1] = test system: Green Peach Aphid (Myzus Persicae); assay: Insecticidal test for green peach aphid in foliar spray assay (col. MYZUPE); type: in vivo; details: for pest or weed control at 200 ppm: Myzus persicae, 72 h, read-out: MYZUPE 200 ppm (Corrected % Control, rating)
How it was run: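 Cabbage seedlings with 2-3 true leaves, infested with 20-50 wingless adult and nymph aphids one day earlier, sprayed to runoff at 200 ppm (acetone/methanol stock diluted in 0.025% Tween 20), four pots per treatment. After 3 days at ~25 °C, 40% RH, live aphids counted; corrected % control versus solvent-sprayed plants.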

[2] = test system: Sweetpotato Whitefly-Crawler (Bemisia Tabaci); assay: Insecticidal test for sweetpotato whitefly-crawler in foliar spray assay (col. BEMITA); type: in vivo; details: for pest or weed control at 200 ppm: Bemisia tabaci, read-out: BEMITA 200 ppm (Corrected % Control, rating)
How it was run: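 Cotton plants (one 3-5 cm true leaf) infested with whitefly eggs (100-300/plant), held 5-6 days at 82° F, 50% RH until crawlers developed. Sprayed to runoff at 200 ppm (acetone stock diluted in 0.025% Tween 20), four plants per treatment. Live nymphs counted after 8-9 days; % control by Abbott's correction versus solvent check.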

Row | Structure (SMILES) | pest or weed control at 200 ppm ([1]; green peach aphid) [%] | pest or weed control at 200 ppm ([2]; sweetpotato whitefly-crawler) [%] | pest or weed control at 200 ppm ([1]; Abbott's correction formula) [%] | pest or weed control at 200 ppm ([2]; Abbott's correction formula) [%] | also measured
1 | CSC(C)(C)CC(=O)Nc1sc(-c2cncc(F)c2)nc1C [Compound 217] | 80 to 100 | < 80 | – | – | melting point: 123 to 126 °C
2 | Cc1nc(-c2cncc(C#N)c2)sc1NC(=O)OC(C)(C)C [Compound 151] | < 80 | < 80 | – | – | melting point: 171 to 174 °C
3 | COC(=O)CCC(=O)N(C)c1cnc(-c2cccnc2)s1 [Compound 27] | 80 to 100 | < 80 | – | – | melting point: 127 to 129 °C
4 | CSCC(C)C(=O)N(C)c1cnc(-c2cccnc2)s1 (centres unmarked) [Compound 28] | 80 to 100 | 80 to 100 | – | – | melting point: 98 to 100 °C
5 | CN(C(=O)C(C)(C)C)c1cnc(-c2cncc(F)c2)s1 [Compound 33] | < 80 | 80 to 100 | – | – | melting point: 153 to 155 °C
6 | CN(C(=O)OC(C)(C)C)c1sc(-c2cncc(F)c2)nc1Cl [Compound 476] | – | – | 80 to 100 | < 80 | melting point: 119 to 120 °C
7 | Cc1nc(-c2cncc(F)c2)sc1NC(=O)CCS(C)(=O)=O [Compound 148] | 80 to 100 | < 80 | – | – | melting point: 230 to 232 °C
8 | CN(C(=O)CCS(C)(=O)=O)c1sc(-c2ccc(F)nc2)nc1Cl [Compound 470] | – | – | 80 to 100 | < 80 | melting point: 42 to 46 °C
9 | CSCC(C)(C)C(=O)N(C)c1sc(-c2cncnc2)nc1C [Compound 53] | < 80 | 80 to 100 | – | – | melting point: 123 to 125 °C
10 | CCN(C(=O)OC(C)(C)C)c1cnc(-c2cccnc2)s1 [Compound 477] | – | – | – | – | melting point: 65 to 67 °C
11 | CN(C(=O)OCC[S+](C)[O-])c1cnc(-c2cncc(F)c2)s1 (centres unmarked) [Compound 84] | 80 to 100 | – | – | – | melting point: 153 to 155 °C
12 | CN(C(=O)CCS(C)(=O)=O)c1sc(-c2cccnc2)nc1Cl [Compound 246] | 80 to 100 | 80 to 100 | – | – | –
13 | Cc1nc(-c2cccnc2)sc1N(C)C(=O)[C@H](CSCc1ccccc1)NC(=O)OC(C)(C)C [Compound 290] | < 80 | < 80 | – | – | –
14 | CSCCNC(=O)N(C)c1cnc(-c2cncc(F)c2)s1 [Compound 72, [2-(5-fluoropyridin-3-yl)-thiazol-5-yl]-1-methyl-3-(2-methylsulfanyl-ethyl)urea] | 80 to 100 | < 80 | – | – | –
15 | CN(C(=O)CC[S+](C)[O-])c1sc(-c2ccc(F)nc2)nc1Cl (centres unmarked) [Compound 469] | – | – | 80 to 100 | < 80 | –
16 | CSCC(C)C(=O)N(C)c1sc(-c2cccnc2)nc1C(F)(F)F (centres unmarked) [Compound 44] | 80 to 100 | 80 to 100 | – | – | –
17 | CCN(C(=O)C(C)C)c1sc(-c2cccnc2)nc1-c1ccccc1 [Compound 63] | < 80 | < 80 | – | – | –
18 | CCN(C(=O)c1c(F)cccc1F)c1sc(-c2cccnc2)nc1Cl [Compound 563] | – | – | 80 to 100 | < 80 | –
19 | CCN(C(=O)Cc1ccsc1)c1sc(-c2cccnc2)nc1Cl [Compound 528] | – | – | < 80 | 80 to 100 | –
20 | COc1cncc(-c2nc(C)c(N(C(=O)OC(C)(C)C)C(=O)C(C)CSC)s2)c1 (centres unmarked) [Compound 176] | < 80 | < 80 | – | – | –
21 | Cc1nc(-c2cccnc2)sc1N(CC1CC1)C(=O)OC(C)(C)C [Compound 462] | – | – | 80 to 100 | < 80 | –

Row | Structure (SMILES) | pest or weed control at 200 ppm ([1]; green peach aphid) [%] | pest or weed control at 200 ppm ([2]; sweetpotato whitefly-crawler) [%] | pest or weed control at 200 ppm ([1]; Abbott's correction formula) [%] | pest or weed control at 200 ppm ([2]; Abbott's correction formula) [%] | also measured
22 | CSCC(C)C(=O)N(COC(=O)c1ccccc1)c1sc(-c2cccnc2)nc1C (centres unmarked) [Compound 203, Benzoic acid [(2-methyl-3-methylsulfanyl-propionyl)-(4-methyl-2-pyridin-3-yl-thiazol-5-yl)-amino]-methyl ester] | 80 to 100 | 80 to 100 | – | – | –
23 | CSCC(Cc1ccccc1)C(=O)Nc1sc(-c2cccnc2)nc1C (centres unmarked) [Compound 329] | < 80 | < 80 | – | – | –
24 | CSCC(C)C(=O)N(c1sc(-c2cccnc2)nc1C)C(C)C (centres unmarked) [Compound 222] | 80 to 100 | < 80 | – | – | –
25 | CC[C@H](NC(=O)OC(C)(C)C)C(=O)N(C)c1sc(-c2cccnc2)nc1C [Compound 312] | 80 to 100 | 80 to 100 | – | – | –
26 | CSCCC(=O)N(C)c1sc(-c2cncc(F)c2)nc1Br [Compound 441] | – | – | 80 to 100 | 80 to 100 | –
27 | CC(=O)c1ccc(C(=O)N(C)c2sc(-c3cccnc3)nc2C)s1 [Compound 350] | < 80 | < 80 | – | – | –
28 | CSCCC(=O)N(C)c1sc(-c2cncnc2)nc1C [Compound 51] | 80 to 100 | 80 to 100 | – | – | –
29 | CSCC(C)(C)C(=O)N(C)c1cnc(-c2cncc(F)c2)s1 [Compound 18, N-[2-(5-fluoropyridin-3-yl)-thiazol-5-yl]-2,2,N-trimethyl-3-methylsulfanyl-propionamide] | 80 to 100 | 80 to 100 | – | – | –
30 | Cc1nc(-c2ccc(F)nc2)sc1NC(=O)C(C)C [Compound 71] | 80 to 100 | – | – | – | melting point: 182 to 186 °C
31 | CCN(C(=O)CC(C)[S+](C)[O-])c1sc(-c2cccnc2)nc1Cl (centres unmarked) [Compound 524] | – | – | 80 to 100 | 80 to 100 | –
32 | CCN(C(=O)C(C)(C)CS(C)(=O)=O)c1sc(-c2cncc(F)c2)nc1C [Compound 261] | – | – | – | – | MYZUPE 200 ppm (Corrected % Control, rating) ([1]; green peach aphid): A (80-100); BEMITA 200 ppm (Corrected % Control, rating) ([2]; sweetpotato whitefly-crawler): A (80-100)
33 | Cc1nc(-c2cccnc2)sc1N(CC1CC1(F)F)C(=O)OC(C)(C)C (centres unmarked) [Compound 461] | – | – | 80 to 100 | < 80 | –
34 | CC(C)C(=O)N1CCCC(C(=O)N(C)c2sc(-c3cccnc3)nc2Cl)C1 (centres unmarked) [Compound 411] | 80 to 100 | 80 to 100 | – | – | –
35 | CCN(C(=O)C(CSC)C(=O)CCSC)c1sc(-c2cccnc2)nc1Cl (centres unmarked) [Compound 496] | – | – | 80 to 100 | < 80 | –
36 | CCN(C(=O)Cc1ccc(C(C)=O)s1)c1sc(-c2cccnc2)nc1Cl [Compound 557] | – | – | < 80 | < 80 | –
37 | COCN(C(=O)C(C)CSC)c1sc(-c2cccnc2)nc1C (centres unmarked) [Compound 196] | 80 to 100 | 80 to 100 | – | – | –
38 | CSC(C)(C)CC(=O)N(C)c1sc(-c2cccnc2)nc1Cl [Compound 489] | – | – | 80 to 100 | 80 to 100 | –
39 | Cc1nc(-c2cccnc2)sc1N(C)C(=O)[C@H](C)NC(=O)OC(C)(C)C [Compound 194] | 80 to 100 | 80 to 100 | – | – | –
40 | CCC(C[S+](C)[O-])C(=O)N(CC)c1sc(-c2cccnc2)nc1Cl (centres unmarked) [Compound 559] | – | – | 80 to 100 | 80 to 100 | –
41 | Cc1nc(-c2cccnc2)sc1NC(=O)c1cscn1 [Compound 340] | 80 to 100 | < 80 | – | – | –
42 | CN(C(=O)CC[S+](C)[O-])c1sc(-c2cncc(Cl)c2)nc1Cl (centres unmarked) [Compound 501] | – | – | 80 to 100 | 80 to 100 | –
